According to patent US20160143913A1, “COMBINATION” (Novartis AG, priority 2009, published 2016):
Where two headings read alike, the source gives them in different places.

Columns and labels:
Assay type in all cases: cell-based
NCI-H1355 = assay: Cell growth inhibition assay (Cell Titer Glo), NCI-H1355; details: Homo sapiens, 72 h; NCI-H1355 lung; KRAS_G13C; PIK3CA/PTEN WT; single agent, 3 days, mean ± std
Description: (§1) Human breast tumor line, MDA-MB-175-VII, human colon tumor lines, Colo-205, DLD-1, HCT-8, HT-29, LS-1034, NCI-H508, RKO, SW1417, SW1463, SW480, SW837 and T84, and human lung tumor lines, A427, A549, Calu 3, Calu 6, HCC827, NCI-H1155, NCI-H1355, NCI-H1792, NCI-H23, NCI-H727, SW1573 and SW900 were from ATCC. Human breast tumor line EFM-19 was from German Collection of Microorganisms and Cell Cultures. Human lung tumor line COR-L23 was from European Collection of Cell Cultures (UK). Human colon tumor line KM12 and human lung tumor line Hop62 were from National Cancer Institute. MV522 was from University of California at San Diego. All lines were cultured in RPMI 1640 medium containing 10% fetal bovine serum (FBS).
(§2) All cells were cultured for a minimum of 72 hours prior to cell plating. […] ATP levels were determined by adding Cell Titer Glo® (Promega) according to the manufacturer's protocol. Briefly, Cell Titer Glo® was added each plate, incubated for 30 minutes then luminescent signal was read on the SpectraMax L plate reader with a 0.5 sec integration time.
(§3) Inhibition of cell growth was estimated after treatment with compound or combination of compounds for three days and comparing the signal to cells treated with vehicle (DMSO). Cell growth was calculated relative to vehicle (DMSO) treated control wells. […]

NCI-H1792 = assay: Cell growth inhibition assay (Cell Titer Glo), NCI-H1792; details: Homo sapiens, 72 h; NCI-H1792 lung; KRAS_G12C; PIK3CA/PTEN WT; single agent, 3 days, mean ± std
Description: as §1, §2, §3

Calu6 = assay: Cell growth inhibition assay (Cell Titer Glo), Calu6; details: Homo sapiens, Calu-6, 72 h; Calu6 lung; KRAS_Q61K; PIK3CA/PTEN WT; single agent, 3 days, mean ± std
Description: as §1, §2, §3

MV522 = assay: Cell growth inhibition assay (Cell Titer Glo), MV522; details: Homo sapiens, 72 h; MV522 lung; BRAF_V600E; PIK3CA/PTEN WT; single agent, 3 days, mean ± std
Description: as §1, §2, §3

NCI-H1155 = assay: Cell growth inhibition assay (Cell Titer Glo), NCI-H1155; details: Homo sapiens, 72 h; NCI-H1155 lung; KRAS_Q61H; PTEN_R233*; single agent, 3 days, mean ± std
Description: as §1, §2, §3

SW1573 = assay: Cell growth inhibition assay (Cell Titer Glo), SW1573; details: Homo sapiens, 72 h; SW1573 lung; KRAS_G12C; PIK3CA_K111E; single agent, 3 days, mean ± std
Description: as §1, §2, §3

HOP62 = assay: Cell growth inhibition assay (Cell Titer Glo), HOP62; details: Homo sapiens, HOP-62, 72 h; HOP62 lung; KRAS_G12C; PIK3CA/PTEN WT; single agent, 3 days, mean ± std
Description: as §1, §2, §3

SW900 = assay: Cell growth inhibition assay (Cell Titer Glo), SW900; details: Homo sapiens, 72 h; SW900 lung; KRAS_G12V; PIK3CA/PTEN WT; single agent, 3 days, mean ± std
Description: as §1, §2, §3

A427 = assay: Cell growth inhibition assay (Cell Titer Glo), A427; details: Homo sapiens, A-427, 72 h; A427 lung; KRAS_G12D; PIK3CA/PTEN WT; single agent, 3 days, mean ± std
Description: as §1, §2, §3

HCC827 = assay: Cell growth inhibition assay (Cell Titer Glo), HCC827; details: Homo sapiens, 72 h; HCC827 lung; KRAS/RAF WT; PIK3CA/PTEN WT; EGFR E746_A750 deletion mutation; single agent, 3 days, mean ± std
Description: as §1, §2, §3

CaLu3 = assay: Cell growth inhibition assay (Cell Titer Glo), CaLu3; details: Homo sapiens, Calu-3, 72 h; CaLu3 lung; KRAS/RAF WT; PIK3CA/PTEN WT; HER2+; single agent, 3 days, mean ± std
Description: as §1, §2, §3

NCI-H727 = assay: Cell growth inhibition assay (Cell Titer Glo), NCI-H727; details: Homo sapiens, 72 h; NCI-H727 lung; KRAS_G12V; PIK3CA/PTEN WT; single agent, 3 days, mean ± std
Description: as §1, §2, §3

human colon tumor lines = assay: Cell growth inhibition assay, colon lines
Description: as §1
as §2, with “plating. Cells were assayed in a 96-well tissue culture plate (NUNC 136102) of RPMI medium containing 10% FBS for all cells at 1,000 cells per well.” for “plating.”
as §3
Combination effects on potency were evaluated using Combination Index (CI) which was calculated with the back-interpolated IC50 values and the mutually non-exclusive equation derived by Chou and Talalay (1): […]
The combination effects on the response scale were quantified by Excess Over Highest Single Agent (EOHSA) based on the concept of nonlinear blending as described in detail by Peterson and Novick (2007) and Peterson (2010) [(2;3) [Peterson and Novick, 2007; Peterson, 2010]. […]

human lung tumor lines = assay: Cell growth inhibition assay, lung tumor lines; details: COR-L23, A549, NCI-H1355, NCI-H1792, NCI-H23, Calu 6 and MV522, range over the lines, read-out: IC50s, single agent
Description: as §1, §2, §3

IC50 (NCI-H1355): 52 ± 10 nM
IC50 (NCI-H1792): 53 ± 16 nM
IC50 (Calu6): 4 ± 3 nM
IC50 (NCI-H1155): > 1000 nM
IC50 (SW1573): > 1000 nM
IC50 (SW900): 127 nM
IC50 (HCC827): > 1000 nM
IC50 (CaLu3): 158 ± 19 nM
IC50 (NCI-H727): 2 nM
IC50 (human colon tumor lines; LS-1034, Colo-205, SW1463, HT29, SW480 and SW1417, read-out: IC50, single agent): ≤ 37 nM
IC50 (human colon tumor lines; colon lines depicted in Table 1, range over the lines, read-out: IC50s, single agent): 1 to 632 nM
IC50 (human lung tumor lines): 2 to 329 nM
SMILES: CC(=O)Nc1cccc(-n2c(=O)n(C3CC3)c(=O)c3c(Nc4ccc(I)cc4F)n(C)c(=O)c(C)c32)c1 [Compound A, N-{3-[3-cyclopropyl-5-(2-fluoro-4-iodo-phenylamino)-6,8-dimethyl-2,4,7-trioxo-3,4,6,7-tetrahydro-2H-pyrido[4,3-d]pyrimidin-1-yl]phenyl}acetamide]
IC50 (MV522): 2 ± 1 nM
IC50 (HOP62): > 1000 nM
IC50 (A427): 22 ± 3 nM
